# In patent US6420367B1, “Pyrimidine derivatives exhibiting antitumor activity” (Shionogo & Co., Ltd., priority 1998, dated 2002):
# What was measured:
# [1] = test system: DT-R cells (pRRE3-luc-transfected v-ki-ras-transformed NIH3T3 cells); signal derived from Ras oncogene products; test: Inhibitory effect against cellular signaling derived from Ras oncogene products: luciferase reporter, dissociation of DT-R from DT-C activity (MAC); assay type: cell-based, mouse; conditions: minimal tested concentration at which luciferase activities of DT-C cells and DT-R cells dissociated
# Procedure, shortened: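 Value is a minimal active concentration: lowest dose where Ras-responsive reporter (DT-R) luciferase diverges from SV40-minimal-promoter control (DT-C). Both transfected v-Ki-ras NIH3T3 lines received 3-fold serial dilutions for 24 h at 37 °C in 10% FCS medium before lysis and luminometry.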
# [2] = test system: human squamous lung cancer Ma44; test: In vitro cell growth inhibition test, MTT assay; assay type: cell-based; conditions: MTT assay 4 days after compound addition
# Procedure, shortened: (§1)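 Read-out is MTT-based cell growth inhibition, run in parallel on human lung, colon and pancreatic (PANC-1) tumour lines.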
# [3] = test system: human colon cancer HT29; test: In vitro cell growth inhibition test, MTT assay; assay type: cell-based; conditions: MTT assay 4 days after compound addition
# Procedure, shortened: as §1
# [4] = test system: human pancreas cancer PANC-1; test: In vitro cell growth inhibition test, MTT assay; assay type: cell-based; conditions: MTT assay 4 days after compound addition
# Procedure, shortened: as §1
# [5] = test system: human squamous lung cancer RERF-RC-AI; test: In vitro cell growth inhibition test, MTT assay; assay type: cell-based; conditions: MTT assay 4 days after compound addition
# Procedure, shortened: as §1
# [6] = test system: human lung adenocarcinoma A549; test: In vitro cell growth inhibition test, MTT assay; assay type: cell-based; conditions: MTT assay 4 days after compound addition
# Procedure, shortened: as §1
# [7] = test system: DT-C cells (pGV-P-transfected v-ki-ras-transformed NIH3T3 cells); test: Luciferase activity in control DT-C cells (IC50-C): non-specific transcription-inhibitory effect or cytotoxicity; assay type: cell-based, mouse; conditions: tested concentration nearest to 50% inhibition in DT-C cells; index of non-specific transcription inhibition or cytotoxicity
# Excerpt: Test Example 1 Inhibitory Effect Against Cellular Signaling Derived From Ras Oncogene Products
# 1) Establishment of Cell Lines Used in Assay
# Based on the reporter plasmid (pGV-P (Toyo Ink, Japan)), in which luciferase gene was ligated to SV40-derived minimal promoter, we constructed a plasmid designated pRRE3-luc by inserting 3 copies of chemically synthesized oligonucleotides (Sequence: CAGGATATGACTCT, derived from mouse NVL-3 (M. A. Reddy et al.(1992)Mol. Endocrinol., 6, 1051)) into upstream of the promoter. v-ki-ras-transformed NIH3T3 cells (DT cells, provided by Dr. Makoto Noda (Kyoto Univ., School of medicine)) were transfected with this plasmid by liposome-mediated transfection and transfected cell lines stably incorporated and maintained each plasmid were obtained. We named pGV-P and pRRE3-transfected cell line as DT-C and DT-R, respectively and used in the assay described below.
# 2) Preparation of Samples
# i) All the cell lines were cultured in Dulbecco's Modified Essential Medium (DMEM: 10% Fetal Calf Serum(FCS: Hyclone, USA)) including […] kanamycin (Meiji Seika, Japan) in humidified incubator under condition of 5% CO2 at 37° C.
# ii) DT-C and DT-R cells were seeded at 2500 cells/well into flat-bottom 96 well multiplate (Sumitomo bakelite) and incubated for 24 hours.
# iii) Test compounds were prepared as 1 mg/ml DMSO solution.
# iv) The solution of test compounds were added to the culture. Tested compounds are used at the concentration from […] to 0.51 ng/ml with by 3-fold dilution.
# v) After 24 hours, the culture supernatant was completely aspirated and […] of cell-lysing solution (PGC-50 (Toyo Ink, Japan)) was added before cells were dried up. In order to the cells were lysed completely, multiwell plates were left at room temperature for 10 to 30 min. The plates were wrapped up and stored at −20° C. till the day of measurement.
# 3) Measurement of Samples
# i) Melt the samples by putting 96 well multiplate at 37° C. and add 90 μl/well 25 mM Tris (pH 7.5).
# ii) Transfer 50 μl of the sample (110 μl) to the 96 well microplate for measurement (Microlite 1 (Dynatech)).
# iii) Measure the samples by the luminometer, LUMINOUS CT9000D (Dia-Yatron, Japan). We used Pickagene luminescence kit PGL2000 or LT2.0 (Toyo Ink, Japan) as substrates for luminescence measurement (50 μl/well).
# 4) Judgment of the Results
# i) The luciferase activity of DT-C cells and DT-R cells were plotted in the graph where the relative activity and the compound concentration were expressed as Y-axis and X-axis, respectively. We judged by the degree of dissociation between the activities of DT-C cells and DT-R cells as an index.
# ii) Concretely, efficacy of the compound was expressed by two values described below.
# b) Among the points of concentration tested, the concentration which is the nearest to 50% inhibition concentration at DT-C cells (IC50-C), was shown as an index of non-specific transcription-inhibitory effect or of cytotoxicity. In case of positive compounds, 50% inhibition concentration above the area of active concentration in DT-C cells was expressed as IC50-C.
"IC50, Ma44 [2]","IC50, HT29 [3]","IC50, PANC-1 [4]","IC50, RERF-LC-AI [5]","IC50, A549 [6]",Structure (SMILES),MAC (Minimal Active Concentration) [1],IC50-C [7]
0.032 µg/mL,0.0084 µg/mL,0.015 µg/mL,0.0067 µg/mL,0.013 µg/mL,CNC(=Nc1nc(C)ncc1CSc1nnc(-c2ccccc2N)o1)NC [Compound A-70],0.123 µg/mL,–
0.1 µg/mL,0.023 µg/mL,0.055 µg/mL,0.024 µg/mL,1.3 µg/mL,CCNC(=Nc1ncncc1CSc1nnc(-c2ccc(SC)cc2)o1)NCC [Compound A-120],0.123 µg/mL,–
0.077 µg/mL,0.039 µg/mL,0.081 µg/mL,0.05 µg/mL,0.18 µg/mL,CCNC(=Nc1nc(C)ncc1CSc1nnc(-c2ccc([N+](=O)[O-])cc2F)o1)NCC [Compound A-132],0.123 µg/mL,–
0.014 µg/mL,0.008 µg/mL,0.007 µg/mL,0.013 µg/mL,0.013 µg/mL,CCCNC(=Nc1nc(CC)ncc1CSc1nnc(-c2ccc(N)cc2)o1)NCCC [Compound A-139],<0.000508 µg/mL,–
0.026 µg/mL,0.013 µg/mL,0.025 µg/mL,0.016 µg/mL,0.049 µg/mL,CCNC(=Nc1nc(C)ncc1CSc1nnc(-c2ccc([N+](=O)[O-])cc2)o1)NC(C)C [Compound A-134],0.0137 µg/mL,–
0.1 µg/mL,0.008 µg/mL,0.016 µg/mL,0.008 µg/mL,0.02 µg/mL,CCNC(=Nc1nc(C)ncc1CSc1nnc(-c2ccc(N)cc2N)o1)NCC [Compound A-76],0.0137 µg/mL,–
0.0043 µg/mL,0.0037 µg/mL,0.0038 µg/mL,0.002 µg/mL,0.0082 µg/mL,CCNC(=Nc1ncncc1CSc1nnc(-c2ccc([N+](=O)[O-])cc2)o1)NC [Compound A-177],0.0412 µg/mL,–
0.31 µg/mL,0.093 µg/mL,0.18 µg/mL,0.077 µg/mL,0.72 µg/mL,CCNC(=Nc1nc(C)ncc1CSc1nnc(-c2ccc(N)c(C)c2)o1)NCC [Compound A-71],1.11 µg/mL,–
0.0032 µg/mL,0.0028 µg/mL,–,0.0016 µg/mL,–,CCNC(=Nc1nc(C)ncc1CSc1nnc(-c2ccc(F)cc2N)o1)NCC [Compound A-49],<0.000508 µg/mL,3.33 µg/mL
0.013 µg/mL,0.0064 µg/mL,0.006 µg/mL,0.004 µg/mL,0.012 µg/mL,CNC(=Nc1nc(C)ncc1CSc1nnc(-c2ccc(N)cc2)o1)NC(C)C [Compound A-171],0.0137 µg/mL,–
0.018 µg/mL,0.006 µg/mL,0.0056 µg/mL,0.0032 µg/mL,0.012 µg/mL,CCNC(=Nc1ncncc1CSc1nnc(-c2ccc(N)cc2)o1)NC [Compound A-176],0.123 µg/mL,–
0.055 µg/mL,0.052 µg/mL,0.05 µg/mL,0.025 µg/mL,0.095 µg/mL,Cc1ncc(CSc2nnc(-c3ccc([N+](=O)[O-])cc3)o2)c(N=C(NC(C)C)NC(C)C)n1 [Compound A-165],0.123 µg/mL,–
0.0021 µg/mL,0.002 µg/mL,0.0026 µg/mL,0.0013 µg/mL,0.0039 µg/mL,C#CCNC(=Nc1nc(C)ncc1CSc1nnc(-c2ccc([N+](=O)[O-])cc2)o1)NCC [Compound A-183],0.00457 µg/mL,–
